Laboratory results taken from patent US6399629B1, “Efflux pump inhibitors” (priority 1998, dated 2002).
Where a name gives a salt, the structure may show the parent alone.

System: Pseudomonas aeruginosa PAM1001
Assay: microbe, parasite or virus in culture
Assay type: cell-based
Conditions: for inhibition at 2.5 µg/mL / inhibition at 5 µg/mL / inhibition at 10 µg/mL / inhibition at 20 µg/mL / inhibition at 40 µg/mL: Pseudomonas aeruginosa, PAM1001, read-out: Inhibition (%) of growth of P. aeruginosa PAM1001; for Inhibition (%) of growth of P. aeruginosa PAM1001: Levofloxacin 0.25 μg/mL
Experimental: For compounds labeled with the prefix ‘D’, potentiation is measured by inhibition of growth of Pseudomonas aeruginosa PAM1001 at varying concentrations of efflux pump inhibitors (EPIs) in the presence of levofloxacin (0.25 microg/mL). Bacteria are grown in Mueller Hinton Broth (MHB, Difco) with an initial inoculum of 1×10^6 CFU/mL. Kinetics of bacterial growth is monitored, during 18 h of incubation at 37° C., by measurement of the culture absorbance at 650 nm using a 96-well plate spectrophotometer (SpectraMax, Molecular Devices). The inhibitory effect of EPIs is expressed as a percentage of growth inhibition compared to a control bacterial culture grown in the presence of 0.25 microg/mL levofloxacin but without EPIs.

[1] = Concentration of Compound 2.5 μg/mL
[2] = Concentration of Compound 5 μg/mL
[3] = Concentration of Compound 10 μg/mL
[4] = Concentration of Compound 20 μg/mL
[5] = Concentration of Compound 40 μg/mL

Q: How did the inhibition at 2.5 µg/mL turn out when NCCC1CN[C@H](C(=O)N2C[C@H](NC(=O)[C@H](O)CCc3ccccc3)C[C@H]2C(=O)Nc2cnc3ccccc3c2)C1 (stereo partly drawn) [Compound D110, 4-(2-Aminoethyl)-Prolyl-trans-4-((R)-2-Hydroxy-4-Phenylbutyrylamino)-L-Proline 3-Quinolylamide Trihydrochloride] was run?
A: 20%

Q: What about the inhibition at 5 µg/mL of the same molecule?
A: 20%

Q: And the inhibition at 10 µg/mL?
A: 100%

Q: And the inhibition at 20 µg/mL?
A: 100%

Q: And the inhibition at 40 µg/mL?
A: 100%

Q: With NCC(=O)N[C@H]1CCN[C@H](C(=O)N2C[C@H](NC(=O)[C@H](O)CCc3ccccc3)C[C@H]2C(=O)Nc2cnc3ccccc3c2)C1 (mixture of isomers) [Compound D114, trans-4-Glycylamino-L-Pipecolinoyl-trans-4-((R)-2-Hydroxy-4-Phenylbutyrylamino)-L-Proline 3-Quinolylamide Trihydrochloride] as the molecule, how does the inhibition at 2.5 µg/mL read?
A: 20%

Q: And the inhibition at 5 µg/mL?
A: 22%

Q: And the inhibition at 10 µg/mL?
A: 90%

Q: What about the inhibition at 20 µg/mL of the same molecule?
A: 100%

Q: What about the inhibition at 40 µg/mL of the same molecule?
A: 100%

Q: How did the inhibition at 2.5 µg/mL turn out when NCC(=O)N[C@@H]1CN[C@H](C(=O)N2C[C@H](NC(=O)[C@H](O)CCc3ccccc3)C[C@H]2C(=O)Nc2cnc3ccccc3c2)C1 (mixture of isomers) [Compound D104, cis-4-Glycylamino-L-Prolyl-trans-4-((R)-2-Hydroxy-4-Phenylbutyrylamino)-L-Proline 3-Quinolylamide Trihydrochloride] was run?
A: 18%

Q: What about the inhibition at 5 µg/mL of the same molecule?
A: 19%

Q: What about the inhibition at 10 µg/mL of the same molecule?
A: 14%

Q: What about the inhibition at 20 µg/mL of the same molecule?
A: 62%

Q: What about the inhibition at 40 µg/mL of the same molecule?
A: 100%

Q: How did the inhibition at 2.5 µg/mL turn out when NCC(=O)N[C@H]1CCN[C@H](C(=O)Nc2ccc(Oc3ccccc3)cc2)C1 [Compound D330, trans-4-Glycylamino-L-Pipecolinoyl 4-Phenoxy-phenylamide Dihydrochloride] was run?
A: 19%

Q: And the inhibition at 5 µg/mL?
A: 18%

Q: And the inhibition at 10 µg/mL?
A: 12%

Q: What about the inhibition at 20 µg/mL of the same molecule?
A: 100%

Q: What about the inhibition at 40 µg/mL of the same molecule?
A: 100%

Q: For NCC(=O)N[C@H]1CN[C@H](C(=O)N[C@H](CCc2ccccc2)C(=O)Nc2ccc3c(c2)CCC3)C1 [Compound D203, trans-4-Glycylamino-L-Prolyl-D-Homophenylalanine 5-Indanylamide Dihydrochloride], which inhibition at 2.5 µg/mL is on record?
A: 18%

Q: What about the inhibition at 5 µg/mL of the same molecule?
A: 17%

Q: And the inhibition at 10 µg/mL?
A: 100%

Q: And the inhibition at 20 µg/mL?
A: 100%

Q: What about the inhibition at 40 µg/mL of the same molecule?
A: 100%

Q: Which results are given for Cl.Cl.NCC(=O)N[C@H]1CN[C@H](COc2ccc(-c3ccccc3)cc2)C1 [Compound D501, (2S,4R)-4-Glycylamino-2-(4-Biphenyloxy)-methylpyrrolidine Dihydrochloride]?
A: Inhibition (%) of growth of P. aeruginosa PAM1001 [1]: 1%; Inhibition (%) of growth of P. aeruginosa PAM1001 [2]: 98%; Inhibition (%) of growth of P. aeruginosa PAM1001 [3]: 100%; Inhibition (%) of growth of P. aeruginosa PAM1001 [4]: 100%; Inhibition (%) of growth of P. aeruginosa PAM1001 [5]: 98%

Q: Which results are given for NC[C@H](O)C(=O)N[C@H]1CN[C@H](C(=O)Nc2ccc(Oc3ccccc3)cc2)C1 [Compound D321, trans-4-((S)-3-Amino-2-Hydroxypropionylamino)-L-Proline 4-Phenoxyphenylamide Dihydrochloride]?
A: inhibition at 2.5 µg/mL: 15%; inhibition at 5 µg/mL: 14%; inhibition at 10 µg/mL: 84%; inhibition at 20 µg/mL: 100%; inhibition at 40 µg/mL: 100%

Q: Cc1ccc(NC(=O)[C@@H](CCc2ccccc2)NC(=O)[C@@H]2C[C@@H](NC(=O)CN)CN2)cc1C [Compound D204, trans-4-Glycylamino-L-Prolyl-D-Homophenylalanine 3,4-Dimethylphenylamide Dihydrochloride] was tested. Which inhibition at 2.5 µg/mL did it give?
A: 18%

Q: What about the inhibition at 5 µg/mL of the same molecule?
A: 16%

Q: And the inhibition at 10 µg/mL?
A: 3%

Q: And the inhibition at 20 µg/mL?
A: 100%

Q: And the inhibition at 40 µg/mL?
A: 100%

Q: How did the inhibition at 2.5 µg/mL turn out when N[C@@H]1CCN[C@H](C(=O)N2C[C@H](NC(=O)[C@H](O)CCc3ccccc3)C[C@H]2C(=O)Nc2cnc3ccccc3c2)C1 (mixture of isomers) [Compound D113, cis-4-Amino-L-Pipecolinoyl-trans-4-((R)-2-Hydroxy-4-Phenylbutyrylamino)-L-Proline 3-Quinolylamide Trihydrochloride] was run?
A: 20%

Q: And the inhibition at 5 µg/mL?
A: 32%

Q: What about the inhibition at 10 µg/mL of the same molecule?
A: 15%

Q: What about the inhibition at 20 µg/mL of the same molecule?
A: 15%

Q: And the inhibition at 40 µg/mL?
A: 100%

Q: For Cl.Cl.Cl.NCC(=O)N[C@H]1CN[C@H](C(=O)Nc2nc(-c3ccccc3)cs2)C1 (relative stereo) [Compound D326, trans 4GlycylaminoL-Proline 4-Phenylthiazol-2-ylamide Trihydrochloride], which “Inhibition (%) of growth of P. aeruginosa PAM1001” value [1] is on record?
A: 18%

Q: And the “Inhibition (%) of growth of P. aeruginosa PAM1001” value [2]?
A: 19%

Q: And the “Inhibition (%) of growth of P. aeruginosa PAM1001” value [3]?
A: 17%

Q: And the “Inhibition (%) of growth of P. aeruginosa PAM1001” value [4]?
A: 13%

Q: What about the “Inhibition (%) of growth of P. aeruginosa PAM1001” value [5] of the same molecule?
A: 74%

Q: Which results are given for Cl.Cl.Cl.NCC(=O)NC1CNC(C(=O)Nc2cccc(NC(=O)CCc3ccccc3)n2)C1 [Compound D702, 2-(trans-4-Glycylamino-L-Prolylamino)-6-(4-Phenylpropanoylamino)Pyridine Trihydrochloride]?
A: Inhibition (%) of growth of P. aeruginosa PAM1001 [1]: 19%; Inhibition (%) of growth of P. aeruginosa PAM1001 [2]: 15%; Inhibition (%) of growth of P. aeruginosa PAM1001 [3]: 82%; Inhibition (%) of growth of P. aeruginosa PAM1001 [4]: 100%; Inhibition (%) of growth of P. aeruginosa PAM1001 [5]: 100%

Q: How did the inhibition at 2.5 µg/mL turn out when NCC(=O)N[C@H]1CN[C@H](C(=O)N2CCN(c3cccc(Cl)c3)CC2)C1 [Compound D401, 1-(trans-4-Glycylamino-L-Prolyl)-4-(3-Chlorophenyl)-piperazine Dihydrochloride] was run?
A: 21%

Q: And the inhibition at 5 µg/mL?
A: 19%

Q: And the inhibition at 10 µg/mL?
A: 15%

Q: And the inhibition at 20 µg/mL?
A: 4%

Q: And the inhibition at 40 µg/mL?
A: 96%

Q: For Cc1c(Cl)cccc1N1CCN(C(=O)[C@@H]2C[C@@H](CN)CN2)CC1 [Compound D407, 1-(trans-4-Aminomethyl-L-Prolyl)-4-(3-Chloro-2-methylphenyl)piperazine Dihydrochloride], which inhibition at 2.5 µg/mL is on record?
A: 100%

Q: What about the inhibition at 5 µg/mL of the same molecule?
A: 100%

Q: And the inhibition at 10 µg/mL?
A: 99%

Q: What about the inhibition at 20 µg/mL of the same molecule?
A: 99%

Q: And the inhibition at 40 µg/mL?
A: 98%

Q: What does the source list for Cc1ccc(Oc2ccc(NC(=O)[C@@H]3C[C@@H](NC(=O)CN)CN3)cc2)cc1 [Compound D302, trans-4-Glycylamino-L-Proline 4-(4′-Methylphenoxy)-phenylamide Dihydrochloride]?
A: inhibition at 2.5 µg/mL: 22%; inhibition at 5 µg/mL: 17%; inhibition at 10 µg/mL: 97%; inhibition at 20 µg/mL: 100%; inhibition at 40 µg/mL: 100%

Q: With N[C@H]1CN[C@H](C(=O)N[C@H](CCc2ccccc2)C(=O)Nc2cnc3ccccc3c2)C1 [Compound D202, trans-4-Amino-L-Prolyl-D-Homophenylalanine 3-Quinolylamide Trihydrochloride] as the molecule, how does the inhibition at 20 µg/mL read?
A: 21%

Q: And the inhibition at 40 µg/mL?
A: 86%

Q: How did the inhibition at 2.5 µg/mL turn out when NCC(=O)N[C@H]1CN[C@H](C(=O)N2CCN(c3ccccc3Cl)CC2)C1 [Compound D405, 1-(trans-4-Glycylamino-L-Prolyl)-4-(2-Chlorophenyl)-piperazine Dihydrochloride] was run?
A: 20%

Q: What about the inhibition at 5 µg/mL of the same molecule?
A: 19%

Q: And the inhibition at 10 µg/mL?
A: 16%

Q: And the inhibition at 20 µg/mL?
A: -11%

Q: And the inhibition at 40 µg/mL?
A: 58%

Q: How did the inhibition at 2.5 µg/mL turn out when NCC(=O)N[C@H]1CN[C@H](C(=O)Nc2ccc(Oc3ccccc3)cc2)C1 [Compound D301, trans-4Glycylamino-L-Proline 4-Phenoxyphenylamide Dihydrochloride] was run?
A: 17%

Q: What about the inhibition at 5 µg/mL of the same molecule?
A: 14%

Q: What about the inhibition at 10 µg/mL of the same molecule?
A: 81%

Q: And the inhibition at 20 µg/mL?
A: 99%

Q: What about the inhibition at 40 µg/mL of the same molecule?
A: 99%

Q: For NCC(=O)N[C@H]1CN[C@H](C(=O)Nc2ccc(CSc3ccccc3)cc2)C1 [Compound D319, trans-4-Glycylamino-L-Proline 4-(Phenylthiomethyl)-phenylamide Dihydrochloride], which inhibition at 2.5 µg/mL is on record?
A: 19%

Q: And the inhibition at 5 µg/mL?
A: 18%

Q: And the inhibition at 10 µg/mL?
A: 99%

Q: And the inhibition at 20 µg/mL?
A: 100%

Q: What about the inhibition at 40 µg/mL of the same molecule?
A: 100%

Q: What does the source list for NCC(=O)N[C@H]1CN[C@H](C(=O)Nc2ccc(SCc3ccccc3)cc2)C1 [Compound D320, trans-4-Glycylamino-L-Proline 4-Benzylthiophenyl-amide Dihydrochloride]?
A: inhibition at 2.5 µg/mL: 23%; inhibition at 5 µg/mL: 21%; inhibition at 10 µg/mL: 97%; inhibition at 20 µg/mL: 100%; inhibition at 40 µg/mL: 100%

Q: Which inhibition at 2.5 µg/mL does the source give for NCC(=O)N[C@@H]1CN[C@@H](COc2ccc(-c3ccccc3)cc2)C1 [Compound D503, (2R,4S)-4-Glycylamino-2-(4-Biphenyloxy)methyl-pyrrolidine Dihydrochloride] here?
A: 22%

Q: What about the inhibition at 5 µg/mL of the same molecule?
A: 15%

Q: What about the inhibition at 10 µg/mL of the same molecule?
A: 100%

Q: And the inhibition at 20 µg/mL?
A: 100%

Q: What about the inhibition at 40 µg/mL of the same molecule?
A: 100%

Q: Which results are given for NCC(=O)N[C@@H]1CN[C@@H](C(=O)N2CCN(Cc3ccccc3)C[C@H]2CCc2ccccc2)C1 [Compound D409, (2R)-4-Benzyl-1-(trans-4-Glycylamino-D-Prolyl)-2-Phenethylpiperazine Trihydrochloride]?
A: inhibition at 2.5 µg/mL: 22%; inhibition at 5 µg/mL: 16%; inhibition at 10 µg/mL: 99%; inhibition at 20 µg/mL: 100%; inhibition at 40 µg/mL: 100%

Q: Which results are given for NCC(=O)N[C@H]1CN[C@H](C(=O)Nc2ccc(OCc3ccccc3)cc2)C1 [Compound D317, trans-4-Glycylamino-L-Proline 4-Benzyloxyphenyl-amide Dihydrochloride]?
A: inhibition at 2.5 µg/mL: 20%; inhibition at 5 µg/mL: 18%; inhibition at 10 µg/mL: -1%; inhibition at 20 µg/mL: 99%; inhibition at 40 µg/mL: 99%
